From patent US9885044B2, “Polynucleotides and methods for inhibiting cancer cells” (Chang Gung Memorial Hospital, Linkou, priority 2015, dated 2018)

What was measured:
[1] = system: p53-deficient and P53-proficient cancer cells; assay: Proliferation rate of cancer cells after shPuf-A transduction; assay type: cell-based; settings: p53-deficient and P53-proficient cancer cells (FIG. 7F)
Excerpt: (§1) FIG. 7A is an assembly of images showing the effect of control shRNA, shPuf-A-1 and Puf-A-2 on Puf-A expression and cleaved form of PARP1, by transducing control shRNA, shPuf-A-1 and Puf-A-2 into the following p53-deficient and p53-proficient cell lines: A549, H460, U87, HCT116, H1299, CL1-5, MB231, LN229 and T98. FIG. 7B is a series of flow cytometry (FACS) images, illustrating the cell-cycle of Puf-A depleted (shPuf-A transduced) p53 proficient (p53 wild type) and p53 deficient (p53 defective) cancer cell lines. FIG. 7C is a series of Western blot images showing the effect shPuf-A-1 transduction on the expression of Puf-A, LC3 (marker for autophagosome), LAMP2 (marker for lysosome) and p62 (an autophagy substrate) in p53^+/+HCT116, p53^−/−HCT116, and p53^−/−H1299 cancer cell lines. FIG. 7D is a Western Blot image illustrating the effect of suppressing p53 and Puf-A in p53-proficient cells (H460). FIG. 7E is a series of immunofluorescence images illustrating the effect of silencing Puf-A, by shPuf-A-1 transduction, on LC3 (green), Lamp1 (red) and DAPI (blue) expression in p53 proficient (p53^+/+) HCT116, P53 deficient (p53^−/−) HCT116 and H1299 cancer cells. FIG. 7F is a series of graphs illustrating reduced proliferation rate of p53^−/− HCT116 and H1299 cells after shPuf-A-1 and shPuf-A-2 transduction compared to control shRNA transduction. […]

[2] = system: LC3-II, LAMP2, p62; assay: Autophagy markers after shPuf-A transduction (Western blot); assay type: cell-based; settings: p53-proficient cells (p53+/+ HCT116)
Excerpt: as §1

[3] = system: p53 and p21; assay: p53 and p21 protein/RNA expression in p53 proficient cancer cells after Puf-A suppression; assay type: cell-based; settings: A549, H460 or HCT116 p53 proficient cells
Excerpt: FIG. 8A is a series of Western blot, RT-PCR and Q-PCR images, illustrating shPuf-A1 and shPuf-A2 transduction increases the expression of p53 and p21 and reduces transcripts of PUF-A in the following p53-proficient (p53^+/+) cancer cell lines: A549, H460, and HCT116. FIG. 8B is a series of immunostaining images illustrating the expression of p53 (red) and DAPI (blue, internal control) in p53-proficient (p53^+/+) cancer cell lines A549, H460 and HCT116 cells and P53 deficient (p53^−/−) HCT116 cancer cells after control shRNA and shPuf-A-1 transduction. FIG. 8C is a series of bar graphs illustrating the FACS analyzed cell-cycles of Puf-A depleted cancer cells, A549, H460 and HCT116, with different p53 genotypes.
The effect of Puf-A suppression on the expression level of p53 and p21 protein/RNA in p53 proficient cancer cells was examined, by infecting A549, H460 or HCT116 cancer cells with shPuf-A-1, shPuf-A-2 or control shRNA viral vectors. […] Cell-cycle progression of the same cancer cell lines was analyzed by FACS.

[4] = system: Puf-A proteins; assay: Puf-A protein expression after shPuf-A transduction of cancer cell lines (Western blot); assay type: cell-based; settings: A549, H460, H1299, CL1-5, HCT116, MB231, U87, LN229, T98 cells
Excerpt: as §1, with “cells.” for “cells. FIG. 7F is a series of graphs illustrating reduced proliferation rate of p53^−/− HCT116 and H1299 cells after shPuf-A-1 and shPuf-A-2 transduction compared to control shRNA transduction.”
The biological function of Puf-A on cancer cells was assessed, using lung cancer cells (A549, H460, H1299 and CL1-5); colorectal cancer cells (HCT116); breast cancer cells (MB231) and glioblastoma cells (U87, LN229 and T98).

[5] = system: LC3-II, LAMP1; assay: Immunofluorescence staining of LC3-II and LAMP1 after shPuf-A-1 transduction; assay type: cell-based
Excerpt: FIG. 7A is an assembly of images showing the effect of control shRNA, shPuf-A-1 and Puf-A-2 on Puf-A expression and cleaved form of PARP1, by transducing control shRNA, shPuf-A-1 and Puf-A-2 into the following p53-deficient and p53-proficient cell lines: A549, H460, U87, HCT116, H1299, CL1-5, MB231, LN229 and T98. FIG. 7B is a series of flow cytometry (FACS) images, illustrating the cell-cycle of Puf-A depleted (shPuf-A transduced) p53 proficient (p53 wild type) and p53 deficient (p53 defective) cancer cell lines. FIG. 7C is a series of Western blot images showing the effect shPuf-A-1 transduction on the expression of Puf-A, LC3 (marker for autophagosome), LAMP2 (marker for lysosome) and p62 (an autophagy substrate) in p53^+/+HCT116, p53^−/−HCT116, and p53^−/−H1299 cancer cell lines. FIG. 7D is a Western Blot image illustrating the effect of suppressing p53 and Puf-A in p53-proficient cells (H460). FIG. 7E is a series of immunofluorescence images illustrating the effect of silencing Puf-A, by shPuf-A-1 transduction, on LC3 (green), Lamp1 (red) and DAPI (blue) expression in p53 proficient (p53^+/+) HCT116, P53 deficient (p53^−/−) HCT116 and H1299 cancer cells. FIG. 7F is a series of graphs illustrating reduced proliferation rate of p53^−/− HCT116 and H1299 cells after shPuf-A-1 and shPuf-A-2 transduction compared to control shRNA transduction.

[6] = system: Puf-A RNA; assay: Puf-A knockdown by shRNA lentivirus vectors, RT-PCR and Q-PCR; assay type: cell-based, human; settings: for knockdown efficiency on Puf-A expression compared to control shRNA: HCT116 and H1299 cells, Q-PCR (FIG. 6D); for expression level of Puf-A RNA compared to control shRNA: p53-proficient (p53+/+ HCT116) and p53-deficient (p53−/− HCT116, p53−/− H1299) cells, GAPDH internal control
Experimental: FIG. 6A show the nucleotide sequence of human Puf-A gene (SEQ ID NO:1). […] FIG. 6C and FIG. 6D illustrate the Puf-A knockdown efficiency of control shRNA, shPuf-A-1 and shPuf-A-2 in colorectal cancer cells (HCT116) and lung cancer cells (H1299), determined by RT-PCR and Q-PCR analyses.
The effect of the shRNAs constructs in FIG. 6B on Puf-A expression was evaluated using p53-proficient (p53^+/+ HCT116) and p53-deficient (p53^−/− HCT116 and p53^−/− H1299). The cells were transduced with control shRNA, shPuf-A-1 and shPuf-A-2 lentivirus vectors and Puf-A expression was determined by […] and Q-PCR. […] The knockdown efficiencies of shPuf-A-1 and shPuf-A-2 on Puf-A expression were approximately 90% and 75%, respectively, compare to the control shRNA (FIG. 6D).

[7] = system: adenoma-bearing LSL-Kras^G12D/p53^flox mice; assay: In vivo evaluation of Puf-A suppression in tumourigenesis (intranasal lentiviral shRNA); settings: lentiviral vector intranasally twice a week for two weeks; sacrificed 6 weeks after Kras^G12D activation and p53 deletion
Excerpt: FIG. 5A schematically illustrates the in vivo study design of Puf-A shRNA delivery to knock down Puf-A. FIG. 5B is an assembly of microscopic images illustrating the number of tumor foci in mice administered with of control shRNA or Puf-A shRNA. FIG. 5C is a series of bar graphs illustrating the counted numbers of tumor foci (>250 μm) in mice with adenocarcinoma (left bar graph) and adenoma (right bar graph), after the administration of control or Puf-A-2 shRNA.
An in vivo evaluation of Puf-A suppression in tumourigenesis was performed using LSL-Kras^G12D1p53^flox mice.
FIG. 5A schematically illustrates the study design. LSL-Kras^G12D/p53^flox mice developed adenoma after 2 weeks of Kras^G12D activation and p53 deletion. Lentiviral vector, expressing shPuf-A-2 (a Puf-A shRNA) or control shRNA, was intranasally delivered to adenoma-bearing LSL-Kras^G12D/p53^flox mice twice a week for two weeks. The mice were sacrificed 6 weeks after Kras^G12D activation and p53 deletion.

## shPuf-A-1: novel short hairpin RNA targeting Puf-A, encoded by SEQ ID NO:2, delivered by lentivirus vector (DNA CCGGGCCTAGCATAGTAAATGACAACTCGAGTTGTCATTTACTATGCTAGGCTTTTTTG)
[1]
  proliferation rate compared to control shRNA virus: reduced
[2]
  level of LC3-II expression: slight increase
[3]
  expression level of p21 protein or RNA compared to control shRNA: significantly increased
  expression level of p53 protein or RNA compared to control shRNA: significantly increased
[4]
  expression level of Puf-A proteins compared to control shRNA: significantly reduced
[5]; p53-deficient cancer cells
  expression and co-localization of LC3-II and LAMP1: increase expression and co-localization
[5]; p53-proficient cancer cells
  LAMP1 around the nuclei: slight increase
[6]
  knockdown efficiency on Puf-A expression compared to control shRNA: approximately 90%
  expression level of Puf-A RNA compared to control shRNA: significantly reduced

## shPuf-A-2: novel short hairpin RNA targeting Puf-A, encoded by SEQ ID NO:3, delivered by lentivirus vector (DNA CCGGCGTGTGATCCAGTGTTACATTCTCGAGAATGTAACACTGGATCACACGTTTTTG)
[1]
  proliferation rate compared to control shRNA virus: reduced
[2]
  level of LC3-II expression: slight increase
[3]
  expression level of p21 protein or RNA compared to control shRNA: significantly increased
  expression level of p53 protein or RNA compared to control shRNA: significantly increased
[4]
  expression level of Puf-A proteins compared to control shRNA: significantly reduced
[7]
  reduction of number of adenocarcinoma focus (>250 μm) vs control shRNA vector: 15.4 fold
  reduction of number of adenoma focus (>250 μm) vs control shRNA vector: 2.6 fold
[6]
  knockdown efficiency on Puf-A expression compared to control shRNA: ~75%
  expression level of Puf-A RNA compared to control shRNA: significantly reduced
